Source: patent US20220009891A1, “(R) ENANATIOMER OF APLEXONE” (The Regents of the University of California, priority 2018, published 2022)

Columns and labels:
[1] = tested on: HMG-CoA reductase pathway; conditions: zebrafish; Choi et al., Development 2011; cited from earlier work
Zebrafish embryos [2] = assay: Cholesterol assay in zebrafish embryos (Amplex Red Cholesterol Assay Kit); type: in vivo; conditions: 40 μM, treated from 10 hpf to 30 hpf; FIG. 1
Protocol: (§1) Zebrafish embryos used in cholesterol assays were treated with aplexone or atorvastatin (AT) from 10 hpf to 30 hpf at a concentration of 40 μM. Yolks were removed by vortexing in calcium-free Ringer's solution with 1 mM EDTA at 4° C. The embryos were then washed with calcium-free Ringer's solution, resuspended in cholesterol assay reaction buffer, and lysed by sonication. Cholesterol levels in embryo lysates were measured with an Amplex Red Cholesterol Assay Kit (ThermoFisher Scientific) and FLUOstar Omega microplate reader (BMG Labtech). Protein concentrations of the embryo lysates were measured by DC protein assay (Bio-Rad Laboratories) using a FLUOstar Omega microplate reader.

[3] = tested on: Transgenic Tg(kdrl:GFP)la116 zebrafish embryos; assay: Disruption of the caudal vein plexus in zebrafish embryos; type: in vivo; conditions: two-day-old zebrafish embryos, treated beginning at 10 hpf
Protocol: (§2) Transgenic Tg(kdrl:GFP)la116 zebrafish embryos were treated with aplexone compounds beginning at 10 hours post fertilization (hpf). After two days of development, treated embryos were anesthetized with 0.01% tricaine and imaged using a Zeiss Axioplan 2 microscope. […] Formation of the caudal vein plexus is disrupted by treatment with 10 μM or higher of racemic (±)-aplexone (3) and 5 μM or higher of R-aplexone (3), but the caudal vein plexus forms normally even after treatment with 20 μM (S)-aplexone (3).

zebrafish = conditions: Choi et al., Development 2011; cited from earlier work
Zebrafish embryos [4] = assay: Biological assays used herein (summary statement); type: in vivo
Protocol: as §2, §1

CC(=O)C1=CCC(c2ccccc2)N(S(=O)(=O)c2ccc(C)cc2)C1 (racemic) [(±)-aplexone, 1-(6-phenyl-1-tosyl-1,2,5,6-tetrahydropyridin-3-yl)ethan-1-one]
regulation of arteriovenous angiogenesis [1]: regulate arteriovenous angiogenesis in zebrafish | cholesterol levels in embryo lysates compared with atorvastatin (AT) (Zebrafish embryos [2]): lowered the cholesterol levels to an extent similar to that of AT | concentration at which formation of the caudal vein plexus is disrupted [3]: ≥ 10 µM | levels of embryonic cholesterol compared with atorvastatin (zebrafish): lowered the levels of embryonic cholesterol to a degree similar to that of atorvastatin

CC(=O)C1=CC[C@H](c2ccccc2)N(S(=O)(=O)c2ccc(C)cc2)C1 [R-aplexone]
cholesterol levels in embryo lysates compared with atorvastatin (AT) (Zebrafish embryos [2]): decreased the cholesterol levels to a greater extent than AT | concentration at which formation of the caudal vein plexus is disrupted [3]: ≥ 5 µM | biological activity of the enantiomer (Zebrafish embryos [4]): active enantiomer

CC(=O)C1=CC[C@@H](c2ccccc2)N(S(=O)(=O)c2ccc(C)cc2)C1 [S-aplexone]
cholesterol levels in embryo lysates compared with atorvastatin (AT) (Zebrafish embryos [2]): no cholesterol lowering activity | concentration at which formation of the caudal vein plexus is disrupted [3]: > 20 µM | biological activity of the enantiomer (Zebrafish embryos [4]): little to no biological activity

CCOC(=O)C1=CC[C@H](c2ccccc2)N(S(=O)(=O)c2ccc(C)cc2)C1 [7c, Ethyl (R)-6-phenyl-1-tosyl-1,2,5,6-tetrahydropyridine-3-carboxylate]
melting point: 145 to 146 °C
